Test results from publication PMC11402896, “Developmental toxicity and estrogenic activity of antimicrobial phenolic-branched fatty acids using in silico simulations and in vivo and in vitro bioassay” (Frontiers in Toxicology, 2024).

How the values were obtained:
[1] = test system: gastric adenocarcinoma cells; design: method as in Günes-Bayir et al., 2018; conditions: dose-dependent manner at 0–100 µM; ref Günes-Bayir et al., 2018; cited from earlier work
human fibroblast (WS-1) = test system: human fibroblast (WS-1); design: method as in Günes-Bayir et al., 2018; conditions: dose-dependent manner at 0–100 µM; ref Günes-Bayir et al., 2018; cited from earlier work
chicken embryos = test system: chicken embryos; design: method as in Zhang et al., 2021; conditions: ref Zhang et al., 2021, cited from earlier work; for Mortality rate: chicken embryos, 50 μg/kg dosage
[2] = test system: estrogen signaling pathway; conditions: cited from earlier work
MCF-7 cells = assay: MCF-7 cell proliferation assay (estrogenic activity); type: cell-based; conditions: 10 and 100 nM, p < 0.05, positive control
Description: MCF-7 cells were grown and maintained as previously described ([Peng et al., 2018]). The EA of creosote, creosote-soy BCFA, and iso-oleic acid was investigated at 10 nM to 1 μM. We evaluated EA for newly synthesized phenolic soy BCFAs with a focus on those who have both good performances in antimicrobial activity and low developmental toxicity in the chicken embryo model. Chemicals were dissolved in DMSO and diluted to the test concentrations (0.1% DMSO). No treatment and VC (0.1% DMSO in cell medium) were included as controls. Fresh medium with test compounds was added on day 2 and refreshed every 2 days. After 6-day exposure, cell numbers were measured by MTT assay using a microplate spectrophotometer ([Peng et al., 2018]). The test was repeated in two independent trials with triplicates for each trial, and cell proliferation rates were calculated for each compound.
(§1) All data were reported as the mean ± standard deviation (SD) of at least two independent trials. The MCF-7 cell proliferation rates of each compound at different concentrations were compared using a one-way analysis of variance (ANOVA) followed by Dunnett’s test with the statistical software JMP 16.0. The developmental indexes (REEW, LSI, weights) and TBARS values obtained from chicken embryonic assays were evaluated by a one-way ANOVA followed by Dunnett’s test performed with JMP.

chicken embryo = assay: Chicken embryonic assay (developmental toxicity, liver TBARS); type: in vivo; conditions: for LSI (%) (liver somatic index) / REEW (ratio of embryo to egg weight) / Weights (g) Embryo / Weights (g) Heart / Weights (g) Liver: mean ± SD
Description: In total, 124 fertilized Leghorn eggs were obtained from the University of Delaware research farm. […] On day 6, the eggs were candled, and a hole was drilled for injection of each chemical at two dosage levels, or VC at 0.2 mL. The hole was sealed with Duco Cement, and eggs were placed back in the egg incubator at 38°C and 60% relative humidity. Each test was repeated in two independent trials. The incubation ended on day 18, and the number of dead embryos was recorded during the incubation period. All embryos were dissected and evaluated for deformation, embryo mass, liver mass, heart mass, ratio of embryo to egg weight (REEW), liver somatic index (LSI), and TBARS levels as described in ([Zhang and Wu, 2022]). Each test was repeated in two independent trials and in duplicate for each trial.
as §1
The developmental toxicity of phenolic-soy BCFAs was evaluated at dosages reported for natural phenolics via a chicken embryo model ([Zhang et al., 2021]; [Zhang and Wu, 2022]). In the present study, 0.1% DMSO in PBS was used as VC.

[3] = chicken embryo day 18, dosage 3.1 μg/kg
[4] = chicken embryo day 18, dosage 31 μg/kg
[5] = chicken embryo day 18, egg injection day 6, dosage 3.1 μg/kg
[6] = chicken embryo day 18, egg injection day 6, dosage 31 μg/kg
[7] = chicken embryo day 18, egg injection day 6, dosage 31 μg/kg, listed as phenol

Cc1ccc(C(C)C)cc1O [Carvacrol]
Reactive oxygen species generation [1]: induced reactive oxygen species generation | Reactive oxygen species generation (human fibroblast (WS-1)): induced reactive oxygen species generation | TBARS levels in fetal chicken liver (chicken embryos; 50 μg/kg): significantly increased TBARS levels | Mortality rate (chicken embryos): 45.5% | Estrogenic activity (EA) ([2]; at 10^–12 M, ref Zhang et al., 2021): weak EA

C[C@]12CC[C@@H]3c4ccc(O)cc4CC[C@H]3[C@@H]1CC[C@@H]2O [E2, 17β-Estradiol]
Cell proliferation rate compared with no treatment and VC (MCF-7 cells): significantly increased cell proliferation rates | Concentration of highest EA ([2]; across the test range from 10^–15 to 10^–4 M, ref Peng et al., 2018): 10 nM | Concentration of peak EA ([2]; our previous findings, ref not given): 10^−9 M

Oc1ccccc1 [Phenol]
LSI (%) (liver somatic index) (chicken embryo; [3]): 2.20 ± 0.25% | REEW (ratio of embryo to egg weight) (chicken embryo; [3]): 0.39 ± 0.014 | Weights (g) Embryo (chicken embryo; [3]): 23.61 ± 2.74 g | Weights (g) Heart (chicken embryo; [3]): 0.21 ± 0.03 g | Weights (g) Liver (chicken embryo; [3]): 0.52 ± 0.12 g | LSI (%) (liver somatic index) (chicken embryo; [4]): 2.23 ± 0.23% | REEW (ratio of embryo to egg weight) (chicken embryo; [4]): 0.36 ± 0.029 | Weights (g) Embryo (chicken embryo; [4]): 22.04 ± 2.54 g | Weights (g) Heart (chicken embryo; [4]): 0.22 ± 0.01 g | Weights (g) Liver (chicken embryo; [4]): 0.52 ± 0.04 g | Malformation rate (%) (chicken embryo; [5]): 0.0 (0) % | Mortality rate (%) (chicken embryo; [5]): 0.0 (0) % | Mortality rate (%) (chicken embryo; chicken embryo day 18, egg injection day 6, dosage 3.1 μg/kg, listed as phenol): no mortality | Malformation rate (%) (chicken embryo; [6]): 12.5 (1) % | Mortality rate (%) (chicken embryo; [6]): 0.0 (0) % | Malformation rate (%) (chicken embryo; [7]): deformed embryos (stunting) were observed | Mortality rate (%) (chicken embryo; [7]): no mortality

Cc1ccc(C(C)C)c(O)c1 [Thymol]
Mortality rate (chicken embryos): no death was found
